From patent EP4389751A1, “HETEROCYCLIC COMPOUNDS AND USES THEREOF” (Kumquat Biosciences Inc., priority 2021, dated 2024)
Like-named read-outs stand apart in the source and are kept apart here.

Key:
[1] = target: T1, KRAS protein (His-tagged GDP-loaded G12S 1-169) (Homo sapiens, UniProt P01116, G12S); assay: Covalent modification of KRAS protein, intact-protein LC-MS; format: binding; conditions: 24hrs at room temperature, KRAS protein ~2 µM
T1 construct: His-tagged GDP-loaded G12S 1-169
Summary of the method: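 His-tagged GDP-loaded KRAS 1-169 (~2 µM) incubated with compound 24 h at room temperature, then quenched with formic acid. Intact-protein LC-ESI-MS on C4 column; deconvoluted peak intensities of unmodified and adducted protein give percent covalent modification.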

GP2D cells = assay: Cell proliferation assay (CellTiter-Glo), K-Ras G12D cells; format: cell-based; conditions: read-out: Inhibition of GP2D Cells (IC50)
Summary of the method: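 GP2D (K-Ras G12D) cells seeded in DMEM with 2 mM glutamine and 10% FBS, then dosed next day with a dilution series (e.g., 9-point 3-fold). Viability read by CellTiter-Glo luminescence after about 5 days. IC50 from four-parameter fit.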

A549 cells = assay: Cell proliferation assay (CellTiter-Glo), K-Ras G12S cells; format: cell-based; conditions: for IC50: Homo sapiens; for ratio of IC50 against a G12D cell line to IC50 against a G12S cell line: K-Ras G12D cell line such as GP2D relative to K-Ras G12S cell line such as A549, greater than 1, 2, 3, 4, 5, 10, 15 or even greater, 8640 min
Procedure: A549 (ATCC CRL-185) and LS123 (ATCC CRL-255) cell lines comprise a G12S mutation and can be used to assess Ras cellular signaling in vitro, e.g., in response to the compounds herein. A549 culture medium is prepared with RPMI-1640 and 10% heat-inactivated FBS. LS123 culture medium is prepared with RPMI-1640 and 10% heat-inactivated FBS. A CellTiter-Glo (CTG) luminescent based assay (Promega) is used to assess growth of the cells, as a measurement of the ability of the compounds herein to inhibit Ras signaling in the cells. The cells (e.g., 800 per well) are seeded in their respective culture medium in standard tissue culture-treated 384-well format plates (Falcon #08-772-116) or ultra-low attachment surface 384-well format plates (S-Bio # MS-9384WZ). The day after plating, cells are treated with a dilution series (e.g., a 10 point 3-fold dilution series) of the compounds herein (e.g., approximately 40 µl final volume per well). Cell viability can be monitored (e.g., approximately 6 days later) according to the manufacturer's recommended instructions, where the CellTiter-Glo reagent is added (e.g., approximately 10 µl), vigorously mixed, covered, and placed on a plate shaker (e.g., approximately for 20 min) to ensure sufficient cell lysis prior to assessment of luminescent signal. The IC50 values are determined using the four parameter fit. The resulting IC50 value is a measurement of the ability of the compounds herein to reduce cell growth of Ras-driven cells (e.g., tumor cell lines) in vitro and/or in vivo.

K-Ras G12S = target: T2, K-Ras G12S (Homo sapiens, UniProt P01116, G12S); assay: HTRF assay of the K-Ras / SOS1 interaction; format: biochemical; conditions: IC50 (against K-Ras G12D) to IC50 (against K-Ras G12S)
T2 construct: made in house; host or cells: E. coli (e.g., BL21 (DE3))
Summary of the method: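 GST-K-Ras G12S with anti-GST-Eu donor and His-hSOS1 with anti-6His-XL665 acceptor in ~5 mM HEPES pH 7.4, ~150 mM NaCl, 1 mM DTT, 0.05% BSA, 0.0025% Igepal. Read after ~10 min or longer; IC50 from 665/620 nm ratio, duplicates at 10 µM down to 0.01 µM.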

[2] = A549, A549 cells (K-Ras G12S), bin ≤ 500 nM, read-out: Inhibition of A549 Cells (IC50)
[3] = A549, A549 cells (K-Ras G12S), bin 500 nM to 5 µM, read-out: Inhibition of A549 Cells (IC50)

SMILES | IC50 (A549 cells; [2]) [nM] | ratio of IC50 against a G12D cell line to IC50 against a G12S cell line (A549 cells) | % G12S Modification at 24 hr. [1] | IC50 (GP2D cells; GP2D cells (K-Ras G12D)) [nM] | Ratio of IC50 KRAS G12D vs. IC50 KRAS G12S (K-Ras G12S) | IC50 (A549 cells; [3]) [nM] | IC50 (GP2D cells; GP2d) [nM] | IC50 (A549 cells; A549, read-out: Inhibition of A549 Cells (IC50)) [nM]
Cc1nc(C)n(C(=O)N2CC3(CCCN(c4nc(OC[C@@]56CCCN5C[C@H](F)C6)nc5c(F)c(-c6ccc(F)c7sc(N)c(C#N)c67)c(Cl)cc45)C3)C2)n1 [Compound A190, 2-amino-4-(6-chloro-4-(2-(3,5-dimethyl-1H-1,2,4-triazole-1-carbonyl)-2,6-diazaspiro[3.5]nonan-6-yl)-8-fluoro-2-(((2R,7aS)-2-fluorotetrahydro-1H-pyrrolizin-7a(5H)-yl)methoxy)quinazolin-7-yl)-7-fluorobenzo[b]thiophene-3-carbonitrile] | – | – | – | 1000 to 10000 | A (A: indicates that the ratio of IC50 against KrasG12D vs. IC50 against KrasG12S is 1-fold or greater) | 500 to 5000 | – | –
Nc1nc2c(-c3c(Cl)cc4c(N5C[C@H]6CC[C@@H](C5)N6C(=O)Nc5ccncn5)nc(OC[C@@]56CCCN5C[C@H](F)C6)nc4c3F)ccc(F)c2s1 [Compound A223, (1R,5S)-3-(7-(2-amino-7-fluorobenzo[d]thiazol-4-yl)-6-chloro-8-fluoro-2-(((2R,7aS)-2-fluorotetrahydro-1H-pyrrolizin-7a(5H)-yl)methoxy)quinazolin-4-yl)-N-(pyrimidin-4-yl)-3,8-diazabicyclo[3.2. 1]octane-8-carboxamide] | – | – | – | – | A (A: indicates that the ratio of IC50 against KrasG12D vs. IC50 against KrasG12S is 1-fold or greater) | – | ≤ 1000 | 500 to 5000
Nc1nc2c(-c3c(Cl)cc4c(N5CCC6(CC5)CN(C(=O)n5cncn5)C6)nc(OC[C@@]56CCCN5C[C@H](F)C6)nc4c3F)ccc(F)c2s1 [Compound A233, (7-(7-(2-amino-7-fluorobenzo[d]thiazol-4-yl)-6-chloro-8-fluoro-2-(((2R,7aS)-2-fluorotetrahydro-1H-pyrrolizin-7a(5H)-yl)methoxy)quinazolin-4-yl)-2,7-diazaspiro[3.5]nonan-2-yl)(1H-1,2,4-triazol-1-yl)methanone] | – | – | – | 1000 to 10000 | A (A: indicates that the ratio of IC50 against KrasG12D vs. IC50 against KrasG12S is 1-fold or greater) | 500 to 5000 | – | –
Nc1nc2c(-c3c(Cl)cc4c(N5CC6CCC(C5)N6C(=O)n5ccnc5Cl)nc(OC[C@@]56CCCN5C[C@H](F)C6)nc4c3F)ccc(F)c2s1 [Compound A242, (3-(7-(2-amino-7-fluorobenzo[d]thiazol-4-yl)-6-chloro-8-fluoro-2-(((2R,7aS)-2-fluorotetrahydro-1H-pyrrolizin-7a(5H)-yl)methoxy)quinazolin-4-yl)-3,8-diazabicyclo[3.2.1]octan-8-yl)(2-chloro-1H-imidazol-1-yl)methanone] | – | – | – | ≤ 1000 | A (A: indicates that the ratio of IC50 against KrasG12D vs. IC50 against KrasG12S is 1-fold or greater) | 500 to 5000 | – | –
N#Cc1ccn(C(=O)N2C3CCC2CN(c2nc(OC[C@@]45CCCN4C[C@H](F)C5)nc4c(F)c(-c5ccc(F)c6sc(N)nc56)c(Cl)cc24)C3)n1 [Compound A245, 1-(3-(7-(2-amino-7-fluorobenzo[d]thiazol-4-yl)-6-chloro-8-fluoro-2-(((2R,7aS)-2-fluorotetrahydro-1H-pyrrolizin-7a(5H)-yl)methoxy)quinazolin-4-yl)-3,8-diazabicyclo[3.2. 1]octane-8-carbonyl)-1H-pyrazole-3-carbonitrile] | – | – | – | ≤ 1000 | A (A: indicates that the ratio of IC50 against KrasG12D vs. IC50 against KrasG12S is 1-fold or greater) | 500 to 5000 | – | –
N#Cc1c(N)sc2c(F)ccc(-c3c(Cl)cc4c(N5CC6CCC(C5)N6C(=O)n5cncn5)nc(OC[C@@]56CCCN5C[C@H](F)C6)nc4c3F)c12 [Compound A260, 4-(4-(8-(1H-1,2,4-triazole-1-carbonyl)-3,8-diazabicyclo[3.2.1]octan-3-yl)-6-chloro-8-fluoro-2-(((2R,7aS)-2-fluorotetrahydro-1H-pyrrolizin-7a(5H)-yl)methoxy)quinazolin-7-yl)-2-amino-7-fluorobenzo[b]thiophene-3-carbonitrile] | ≤ 500 | – | – | ≤ 1000 | A (A: indicates that the ratio of IC50 against KrasG12D vs. IC50 against KrasG12S is 1-fold or greater) | – | – | –
Nc1nc2c(-c3c(Cl)cc4c(N5CC6CCC(C5)N6C(=O)n5ccnc5)nc(OC[C@@]56CCCN5C[C@H](F)C6)nc4c3F)ccc(F)c2s1 [Compound A289, (3-(7-(2-amino-7-fluorobenzo[d]thiazol-4-yl)-6-chloro-8-fluoro-2-(((2R,7aS)-2-fluorotetrahydro-1H-pyrrolizin-7a(5H)-yl)methoxy)quinazolin-4-yl)-3,8-diazabicyclo[3.2.1]octan-8-yl)(1H-imidazol-1-yl)methanone] | – | – | – | ≤ 1000 | A (A: indicates that the ratio of IC50 against KrasG12D vs. IC50 against KrasG12S is 1-fold or greater) | 500 to 5000 | – | –

Further lines, with some results ahead:

IC50 (A549 cells; [2]) [nM] | ratio of IC50 against a G12D cell line to IC50 against a G12S cell line (A549 cells) | SMILES | % G12S Modification at 24 hr. [1] | IC50 (GP2D cells; GP2D cells (K-Ras G12D)) [nM] | Ratio of IC50 KRAS G12D vs. IC50 KRAS G12S (K-Ras G12S) | IC50 (A549 cells; [3]) [nM] | IC50 (GP2D cells; GP2d) [nM] | IC50 (A549 cells; A549, read-out: Inhibition of A549 Cells (IC50)) [nM]
≤ 500 | – | C#Cc1c(F)ccc2cc(O)cc(-c3ncc4c(N5CCOC6(CN(C(=O)n7cncn7)C6)C5)nc(OC[C@@]56CCCN5C[C@H](F)C6)nc4c3F)c12 [Compound A106, (8-(7-(8-ethynyl-7-fluoro-3-hydroxynaphthalen-1-yl)-8-fluoro-2-(((2R,7aS)-2-fluorotetrahydro-1H-pyrrolizin-7a(5H)-yl)methoxy)pyrido[4,3-d]pyrimidin-4-yl)-5-oxa-2,8-diazaspiro[3.5]nonan-2-yl)(1H-1,2,4-triazol-1-yl)methanone] | +++ (+++ indicates greater than 20% labelling) | 1000 to 10000 | – | – | – | –
≤ 500 | greater than 1 | C#Cc1c(F)ccc2cc(O)cc(-c3ncc4c(N5CCCCC6(CN(C(=O)n7cncn7)C6)C5)nc(OC[C@@]56CCCN5C[C@H](F)C6)nc4c3F)c12 [Compound A128, (6-(7-(8-ethynyl-7-fluoro-3-hydroxynaphthalen-1-yl)-8-fluoro-2-(((2R,7aS)-2-fluorotetrahydro-1H-pyrrolizin-7a(5H)-yl)methoxy)pyrido[4,3-d]pyrimidin-4-yl)-2,6-diazaspiro[3.6]decan-2-yl)(1H-1,2,4-triazol-1-yl)methanone] | +++ (+++ indicates greater than 20% labelling) | ≤ 1000 | – | – | – | –
≤ 500 | – | N#Cc1c(N)sc2c(F)ccc(-c3c(Cl)cc4c(N5CCOC6(CN(C(=O)n7cncn7)C6)C5)nc(OC[C@@]56CCCN5C[C@H](F)C6)nc4c3F)c12 [Compound A162, 4-(4-(2-(1H-1,2,4-triazole-1-carbonyl)-5-oxa-2,8-diazaspiro[3.5]nonan-8-yl)-6-chloro-8-fluoro-2-(((2R,7aS)-2-fluorotetrahydro-1H-pyrrolizin-7a(5H)-yl)methoxy)quinazolin-7-yl)-2-amino-7-fluorobenzo[b]thiophene-3-carbonitrile] | +++ (+++ indicates greater than 20% labelling) | – | A (A: indicates that the ratio of IC50 against KrasG12D vs. IC50 against KrasG12S is 1-fold or greater) | – | – | –
– | greater than 1 | N#Cc1c(N)sc2c(F)ccc(-c3c(Cl)cc4c(N5CC(F)(F)C6(CN(C(=O)n7cncn7)C6)C5)nc(OC[C@@]56CCCN5C[C@H](F)C6)nc4c3F)c12 [Compound A199, 2-amino-4-(6-chloro-4-(8,8-difluoro-2-(1H-1,2,4-triazole-1-carbonyl)-2,6-diazaspiro[3.4]octan-6-yl)-8-fluoro-2-(((2R,7aS)-2-fluorotetrahydro-1H-pyrrolizin-7a(5H)-yl)methoxy)quinazolm-7-yl)-7-fluorobenzo[b]thiophene-3-carbonitrile] | +++ (+++ indicates greater than 20% labelling) | – | A (A: indicates that the ratio of IC50 against KrasG12D vs. IC50 against KrasG12S is 1-fold or greater) | – | – | –
